The numbers were not newly measured in US6362007B1, “Methylated, SMD homologous peptides, reactive with the antibodies from sera of living beings affected with systemic lupus erythematosus” (Innogenetics N.V., priority 1997, dated 2002), which cites them from elsewhere.

For the series, the system named is antibodies in SmD positive sera. Particulars: James et al. 1994; synthetic octapeptides of SmD1.

On to “amino acid 82-90: additional SmD1 epitope in the region of amino acid 82-90 (James et al. 1994) (DVEPKVKSK; UniProt P62314 82-90, looked up, fragment)”, for which the “SmD positive sera (precipitin positive) reactive” value was 7 of 9.

For “octapeptides 92-112: SmD1 sequence spanning synthetic octapeptides 92-112 (James et al. 1994) (REAVAGRGRGRGRGRGRGRGR; UniProt P62314 92-112, looked up, fragment)”, the “SmD positive sera (precipitin positive) reactive” value was 8 of 9.
